Results as given in US10576062B2, “Carbamoyloxymethyl triazole cyclohexyl acids as LPA antagonists” (Bristol-Myers Squibb Company, priority 2016, dated 2020).

Target: T1, human LPA1 (Homo sapiens, UniProt Q92633)
T1 construct: expressed in transfected cells; host or cells: Chinese hamster ovary (CHO) cells
Assay: LPA1 functional antagonist assay (LPA-induced calcium flux)
Format: cell-based
Settings: CHO cells overexpressing human LPA1; inhibition of calcium flux induced by 10 nM LPA; read-out: hLPA1 IC50
Method in brief: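 CHO cells overexpressing human LPA1, loaded with calcium dye 30 min at 37° C, were preincubated 20 min at room temperature with compound (0.08 nM–5 μM, 0.5% DMSO) in HBSS/20 mM HEPES/0.1% fatty acid-free BSA.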

T1 sequence (Q92633 whole entry): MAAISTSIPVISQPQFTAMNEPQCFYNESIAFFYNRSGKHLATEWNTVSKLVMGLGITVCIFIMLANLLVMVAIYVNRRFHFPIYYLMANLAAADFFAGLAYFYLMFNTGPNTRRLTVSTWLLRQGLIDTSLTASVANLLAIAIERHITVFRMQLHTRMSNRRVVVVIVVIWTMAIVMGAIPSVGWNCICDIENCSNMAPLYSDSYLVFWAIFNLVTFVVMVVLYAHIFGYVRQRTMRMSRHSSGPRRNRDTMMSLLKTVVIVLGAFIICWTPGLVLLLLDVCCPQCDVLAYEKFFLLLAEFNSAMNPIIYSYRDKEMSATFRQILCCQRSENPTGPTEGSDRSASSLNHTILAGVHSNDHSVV

SMILES	IC50 [nM]
Cc1nc(-c2nnn(C)c2COC(=O)N(C)CC2CCC2)ccc1O[C@H]1CCC[C@H](C(N)=O)C1 [Example 14, (4-(5-(((1S,3S)-3-carbamoylcyclohexyl)oxy)-6-methylpyridin-2-yl)-1-methyl-1H-1,2,3-triazol-5-yl)methyl (cyclobutylmethyl)(methyl)carbamate]	824
Cc1nc(-c2nnn(C)c2COC(=O)N(C)CC2CCC2)ccc1O[C@H]1CCC[C@H](C(=O)NS(C)(=O)=O)C1 [Example 17, (1-methyl-4-(6-methyl-5-(((1S,3S)-3-((methylsulfonyl)carbamoyl)cyclohexyl)oxy)pyridin-2-yl)-1H-1,2,3-triazol-5-yl)methyl (cyclobutylmethyl)(methyl)carbamate]	352

Other lines, results leading:

IC50 [nM]	SMILES
76	Cc1nc(-c2nnn(C)c2COC(=O)N(C)CC(C)(C)C)ccc1O[C@H]1CCC[C@H](C(=O)O)C1 [Example 264, (1S,3S)-3-((2-methyl-6-(1-methyl-5-(((methyl(neopentyl)carbamoyl)oxy)methyl)-1H-1,2,3-triazol-4-yl)pyridin-3-yl)oxy)cyclohexane-1-carboxylic acid]
41	Cc1nc(-c2nnn(C)c2CCOC(=O)N(C)C2CCC2)ccc1O[C@H]1CCC[C@H](C(=O)O)C1 [Example 247, (1S,3S)-3-((6-(5-(2-((Cyclobutyl(methyl)carbamoyl)oxy)ethyl)-1-methyl-1H-1,2,3-triazol-4-yl)-2-methylpyridin-3-yl)oxy)cyclo-hexane-1-carboxylic acid]
14	CCc1nc(-c2nnn(C)c2COC(=O)N(C)CC2CC2)ccc1O[C@H]1CCC[C@H](C(=O)O)C1 [Example 194, (1S,3S)-3-((6-(5-((((cyclopropylmethyl)(methyl)carbamoyl)oxy)methyl)-1-methyl-1H-1,2,3-triazol-4-yl)-2-ethylpyridin-3-yl)oxy)cyclohexane-1-carboxylic acid]
103	COCc1nc(-c2nnn(C)c2COC(=O)N(C)CC2CCC2)ccc1O[C@H]1CCC[C@H](C(=O)O)C1 [Example 268, (1S,3 S)-3-((6-(5-((((cyclobutylmethyl)(methyl)carbamoyl)oxy)methyl)-1-methyl-1H-1,2,3-triazol-4-yl)-2-(methoxymethyl)pyridin-3-yl)oxy)cyclohexane-1-carboxylic Acid]
70	Cc1nc(-c2nnn(C)c2COC(=O)N(C)C[C@@H]2C[C@H]2C)cnc1O[C@H]1CCC[C@H](C(=O)O)C1 [Example 235, (1S,3S)-3-((3-methyl-5-(1-methyl-5-(((methyl(((1R,2R)-2-methylcyclopropyl)methyl)carbamoyl)oxy)methyl)-1H-1,2,3-triazol-4-yl)pyrazin-2-yl)oxy)cyclohexane-1-carboxylic acid]
72	Cc1nc(-c2nnn(C)c2COC(=O)N(C)CC2(F)CCCC2)cnc1O[C@H]1CCC[C@H](C(=O)O)C1 [Example 234, (1S,3S)-3-((5-(5-(((((1-fluorocyclopentyl)methyl)(methyl)carbamoyl)oxy)methyl)-1-methyl-1H-1,2,3-triazol-4-yl)-3-methylpyrazin-2-yl)oxy)cyclohexane-1-carboxylic acid]
60	Cc1nc(-c2nnn(C)c2COC(=O)N(C)Cc2ccccc2)cnc1O[C@H]1CCC[C@H](C(=O)O)C1 [Example 228, (1S,3S)-3-((5-(5-(((benzyl(methyl)carbamoyl)oxy)methyl)-1-methyl-1H-1,2,3-triazol-4-yl)-3-methylpyrazin-2-yl)oxy)cyclohexane-1-carboxylic acid]
49	Cc1nc(-c2nnn(C)c2COC(=O)N(C)C2CCCC2)cnc1O[C@H]1CCC[C@H](C(=O)O)C1 [Example 226, (1S,3S)-3-((5-(5-(((cyclopentyl(methyl)carbamoyl)oxy)methyl)-1-methyl-1H-1,2,3-triazol-4-yl)-3-methylpyrazin-2-yl)oxy)cyclohexane-1-carboxylic acid]

Same assay, conditions: human LPA1; read-out: hLPA1 IC50

IC50 [nM]	SMILES
58	CN(C(=O)OCc1c(-c2ccc(O[C@H]3CCC[C@H](C(=O)O)C3)cn2)nnn1C)C1CCC1 [Example 174, (1S,3S)-3-((6-(5-(((cyclobutyl(methyl)carbamoyl)oxy)methyl)-1-methyl-1H-1,2,3-triazol-4-yl)pyridin-3-yl)oxy)cyclohexane-1-carboxylic acid]
67	CN(CC1CC1(F)F)C(=O)OCc1c(-c2ccc(O[C@H]3CCC[C@H](C(=O)O)C3)cn2)nnn1C (mixture of isomers) [Example 186, (1S,3S)-3-((6-(5-(((((2,2-difluorocyclopropyl)methyl)(methyl)carbamoyl)oxy)methyl)-1-methyl-1H-1,2,3-triazol-4-yl)pyridin-3-yl)oxy)cyclohexane-1-carboxylic acid]
14	Cc1nc(-c2nnn(C)c2COC(=O)N(C)C2CC3(CC3)C2)ccc1O[C@H]1CCC[C@H](C(=O)O)C1 [Example 179, (1S,3S)-3-((2-methyl-6-(1-methyl-5-(((methyl(spiro[2.3]hexan-5-yl)carbamoyl)oxy)methyl)-1H-1,2,3-triazol-4-yl)pyridin-3-yl)oxy)cyclohexane-1-carboxylic acid]
61	Cc1nc(-c2nnn(C)c2COC(=O)N(C)C2CC(C)(C)C2)ccc1O[C@H]1CCC[C@@H](C(=O)O)C1 [Example 160, (1R,3S)-3-((6-(5-((((3,3-dimethylcyclobutyl)(methyl)carbamoyl)oxy)methyl)-1-methyl-1H-1,2,3-triazol-4-yl)-2-methylpyridin-3-yl)oxy)cyclohexane-1-carboxylic acid]

Same assay, conditions: read-out: hLPA1 IC50

IC50 [nM]	SMILES
100	CN(C(=O)OCc1c(-c2ccc(O[C@H]3CCC[C@H](C(=O)O)C3)cc2)nnn1C)C(C1CC1)C1CC1 [Example 74, (1S,3S)-3-(4-(5-((((Dicyclopropylmethyl)(methyl)carbamoyl)oxy)methyl)-1-methyl-1H-1,2,3-triazol-4-yl)phenoxy)cyclohexanecarboxylic acid]
119	Cc1nc(-c2nnn(C)c2COC(=O)N(C)CCc2ccccc2)ccc1O[C@H]1CCC[C@H](C(=O)O)C1 [Example 103, (1S,3S)-3-((2-methyl-6-(1-methyl-5-(((methyl(phenethyl)carbamoyl)oxy)methyl)-1H-1,2,3-triazol-4-yl)pyridin-3-yl)oxy)cyclohexane-1-carboxylic acid]
32	CCCCN(C)C(=O)OCc1c(-c2ccc(O[C@H]3CCC[C@H](C(=O)O)C3)cc2)nnn1C (racemic) [Example 64, (rac)-trans-3-(4-(5-(((butyl(methyl)carbamoyl)oxy)methyl)-1-methyl-1H-1,2,3-triazol-4-yl)phenoxy)cyclohexane-1-carboxylic acid]
61	CCCC1(N(C)C(=O)OCc2c(-c3ccc(O[C@H]4CCC[C@H](C(=O)O)C4)cn3)nnn2C)CC1 [Example 81, (1S,3S)-3-((6-(1-methyl-5-(((methyl(1-propylcyclopropyl)carbamoyl)oxy)methyl)-1H-1,2,3-triazol-4-yl)pyridin-3-yl)oxy)cyclohexane-1-carboxylic acid]
17	Cc1nc(-c2nnn(C)c2COC(=O)N(C)[C@H](C)c2ccccc2)ccc1O[C@H]1CCC[C@H](C(=O)O)C1 [Example 19, (1S,3S)-3-((2-methyl-6-(1-methyl-5-(((methyl((R)-1-phenylethyl)carbamoyl)oxy)methyl)-1H-1,2,3-triazol-4-yl)pyridin-3-yl)oxy)cyclohexane-1-carboxylic acid]
29	Cc1nc(-c2nnn(C)c2COC(=O)N(C)CC(C)C)ccc1O[C@H]1CCC[C@H](C(=O)O)C1 [Example 116, (1S,3S)-3-((6-(5-(((isobutyl(methyl)carbamoyl)oxy)methyl)-1-methyl-1H-1,2,3-triazol-4-yl)-2-methylpyridin-3-yl)oxy)cyclohexane-1-carboxylic acid]
284	Cc1nc(-c2nnn(C)c2COC(=O)N(C)Cc2ccc(Cl)cc2)ccc1O[C@H]1CCC[C@H](C(=O)O)C1 [Example 35, (1S,3S)-3-((6-(5-((((4-chlorobenzyl)(methyl)carbamoyl)oxy)methyl)-1-methyl-1H-1,2,3-triazol-4-yl)-2-methylpyridin-3-yl)oxy)cyclohexane-1-carboxylic acid]
618	Cc1nc(-c2nnn(C)c2COC(=O)N(C)Cc2cnccn2)ccc1O[C@H]1CCC[C@H](C(=O)O)C1 [Example 123, (1S,3S)-3-((2-methyl-6-(1-methyl-5-(((methyl(pyrazin-2-ylmethyl)carbamoyl)oxy)methyl)-1H-1,2,3-triazol-4-yl)pyridin-3-yl)oxy)cyclohexane-1-carboxylic acid]
144	CCC(C1CCC1)N(C)C(=O)OCc1c(-c2ccc(O[C@H]3CCC[C@H](C(=O)O)C3)c(C)n2)nnn1C (mixture of isomers) [Example 99, (1S,3S)-3-((6-(5-((((1-cyclobutylpropyl)(methyl)carbamoyl)oxy)methyl)-1-methyl-1H-1,2,3-triazol-4-yl)-2-methylpyridin-3-yl)oxy)cyclohexane-1-carboxylic acid]
197	C[C@@H](C1CC1)N(C)C(=O)OCc1c(-c2ccc(O[C@H]3CCC[C@H](C(=O)O)C3)cc2)nnn1C [Example 52, (1S,3S)-3-(4-(5-(((((S)-1-cyclopropylethyl)(methyl)carbamoyl)oxy)methyl)-1-methyl-1H-1,2,3-triazol-4-yl)phenoxy)cyclohexane-1-carboxylic acid]
241	CC(OC(=O)N(C)C1CCCC1)c1c(-c2ccc(O[C@H]3CCC[C@H](C(=O)O)C3)cc2)nnn1C (stereo partly drawn) [Example 94, (1S,3S)-3-(4-(5-(1-((cyclopentyl(methyl)carbamoyl)oxy)ethyl)-1-methyl-1H-1,2,3-triazol-4-yl)phenoxy)cyclohexane-1-carboxylic acid]
187	CCC1(N(C)C(=O)OCc2c(-c3ccc(O[C@H]4CCC[C@H](C(=O)O)C4)c(C)n3)nnn2C)CC1 [Example 131, (1S,3S)-3-((6-(5-((((1-ethylcyclopropyl)(methyl)carbamoyl)oxy)methyl)-1-methyl-1H-1,2,3-triazol-4-yl)-2-methylpyridin-3-yl)oxy)cyclohexane-1-carboxylic acid]
